{"source": "patent US12357591B2", "about": "(Nova Southeastern University, priority 2018, dated 2025)", "key": {"in vitro [1]": {"experiment": "in vitro", "procedure": "The volunteer was asked not to eat or drink any acidic, alkaline, or spicy food or beverages and to rinse their mouth before the collection of saliva. The saliva was collected into an ice-bathed beaker and then degased to remove air bubbles and then filtered through 0.45 μm membrane.\nAliquot samples were withdrawn at specific time intervals including 2, 4, 6, 10, 15, and 30 min."}, "in vitro [2]": {"experiment": "in vitro", "details": "for Papp at 90 min, 10 mg/mL: pig", "procedure": "Frozen pig's heads were obtained from local abattoir. Then, they were defrosted at room temperature. The porcine mucosa were excised by dissecting the sublingual mucosa and removing the underlying connective tissue using a scalpel and fine tweezers using established surgical techniques. The excised mucosa were frozen on aluminum foil at −20° C. until used (<4 weeks).\nThe sublingual mucosa (floor of the mouth) excised from pigs were used as the diffusion membranes. Mcvilian buffer at various pH was used in the donor cell as a diffusion medium.\nBefore each experiment, the mucosal membranes were defrosted at room temperature and mounted between the donor and receptor chambers and clamped using a metal clamp. The receptor chamber that has a magnetic stirrer was filled with the diffusion medium before mounting the membranes and air bubbles were removed after mounting the membranes and before the experiment. The water bath was set at 37° C. for the circulating water in the jacketed Franz Cells. The mounted membranes were equilibrated with the diffusion medium for 30 min from both sides before the experiment and were checked for any leaks.\nAliquots were withdrawn from the receptor chamber using 6 inch-long needles (Popper & Sons. Inc, New Hyde Park, NYC) and 1 mL syringes at 5, 10, 15, 20, 30, 45, 60, 75, and 90 min. The withdrawn volumes were replaced with fresh medium.\nSamples were transferred to HPLC vials for HPLC analysis according to USP Method."}, "[3]": {"experiment": "Epinephrine permeability with alkalizing agent and penetration enhancer, Franz cells", "type": "in vitro ADME, porcine", "procedure": "EpiBit solution with penetration enhancer and alkalizing agent was added to the donor chamber."}, "[4]": {"details": "between pH 4 to 5, first 2 min", "protocol": "Aliquot samples were withdrawn at specific time intervals including 2 (maximum expected time for sublingual administration), 4, 6, 10, 15, and 30 min."}, "[5]": {"details": "cited from earlier work"}, "[6]": {"experiment": "pH of 2 mL water as diffusion medium with pH-modifying excipients", "type": "physicochemical"}, "[7]": {"details": "1.125% (w/v) in 2 mL water, With Epi (20 mg)"}, "[8]": {"details": "1.125% (w/v) in 2 mL water, Without Epi"}, "[9]": {"details": "1.875% (w/v) in 2 mL water, With Epi (20 mg)"}, "[10]": {"details": "1.875% (w/v) in 2 mL water, Without Epi"}}}
{"molecule": "CNC[C@H](O)c1ccc(O)c(O)c1", "note": "[Epi, Epinephrine]", "values": [{"measurement": "recovery at 0 min, 5 mg/mL", "setting": "in vitro [1]; male, human, human saliva", "result": "100 ± 0.2", "unit": "%"}, {"measurement": "recovery at 2 min, 5 mg/mL", "setting": "in vitro [1]; male, human, human saliva", "result": "96 ± 0.2", "unit": "%"}, {"measurement": "recovery at 4 min, 5 mg/mL", "setting": "in vitro [1]; male, human, human saliva", "result": "96 ± 0.2", "unit": "%"}, {"measurement": "recovery at 6 min, 5 mg/mL", "setting": "in vitro [1]; male, human, human saliva", "result": "95 ± 0.1", "unit": "%"}, {"measurement": "recovery at 10 min, 5 mg/mL", "setting": "in vitro [1]; male, human, human saliva", "result": "95 ± 0.2", "unit": "%"}, {"measurement": "recovery at 15 min, 5 mg/mL", "setting": "in vitro [1]; male, human, human saliva", "result": "92 ± 0.2", "unit": "%"}, {"measurement": "recovery at 30 min, 5 mg/mL", "setting": "in vitro [1]; male, human, human saliva", "result": 84, "unit": "%"}, {"measurement": "stability of Epi in human saliva", "setting": "in vitro [1]; saliva pH and up to pH 8", "result": "stable in human saliva (saliva pH and up to pH 8) for sufficient time to allow for sublingual drug administration"}, {"measurement": "AUC0-90 min", "setting": "in vitro [2]; pH 5", "result": "5169 ± 255", "unit": "μg/cm^2/ min"}, {"measurement": "J (influx)", "setting": "in vitro [2]; pH 5", "result": "0.4 ± 0.1", "unit": "μg/cm^2/min"}, {"measurement": "AUC0-90 min", "setting": "in vitro [2]; pH 6", "result": "6191 ± 756", "unit": "μg/cm^2/ min"}, {"measurement": "J (influx)", "setting": "in vitro [2]; pH 6", "result": "0.8 ± 0.2", "unit": "μg/cm^2/min"}, {"measurement": "AUC0-90 min", "setting": "in vitro [2]; pH 6.8", "result": "46562 ± 3450", "unit": "μg/cm^2/ min"}, {"measurement": "J (influx)", "setting": "in vitro [2]; pH 6.8", "result": "2.8 ± 0.2", "unit": "μg/cm^2/min"}, {"measurement": "AUC0-90 min", "setting": "in vitro [2]; pH 7.4", "result": "60099 ± 6576", "unit": "μg/cm^2/ min"}, {"measurement": "J (influx)", "setting": "in vitro [2]; pH 7.4", "result": "5.3 ± 0.2", "unit": "μg/cm^2/min"}, {"measurement": "AUC0-90 min", "setting": "in vitro [2]; pH 8", "result": "135689 ± 439", "unit": "μg/cm^2/ min"}, {"measurement": "J (influx)", "setting": "in vitro [2]; pH 8", "result": "30.9 ± 0.4", "unit": "μg/cm^2/min"}, {"measurement": "increase of Epi sublingual permeability", "setting": "in vitro [2]; pH 8 compared to pH 6.8", "result": "about 11 fold"}, {"measurement": "Papp at 90 min, 10 mg/mL", "setting": "in vitro [2]; pH 5", "result": 333, "unit": "×10⁻⁶ cm/s"}, {"measurement": "Papp at 90 min, 10 mg/mL", "setting": "in vitro [2]; pH 6", "result": 667, "unit": "×10⁻⁶ cm/s"}, {"measurement": "Papp at 90 min, 10 mg/mL", "setting": "in vitro [2]; pH 6.8", "result": 2330, "unit": "×10⁻⁶ cm/s"}, {"measurement": "Papp at 90 min, 10 mg/mL", "setting": "in vitro [2]; pH 7.4", "result": 4330, "unit": "×10⁻⁶ cm/s"}, {"measurement": "enhancement of Epi sublingual permeability", "setting": "[3]; alkalizing agent (pH of diffusion medium around 8) with permeation enhancer like SDS", "result": "about 25 fold"}, {"measurement": "enhancement of Epi sublingual permeability", "setting": "[3]; alkalizing agent or permeation enhancer, each one alone", "result": "10- to 11 fold"}, {"measurement": "Epi loss", "setting": "[4]", "result": "10-17%"}, {"measurement": "optimal pH values for the stability of Epi in aqueous solution", "setting": "[5]", "result": "3.0-3.8"}]}
{"molecule": "O=C([O-])O.[Na+]", "note": "[Na Bicarbonate, sodium bicarbonate]", "values": [{"measurement": "pH Reading", "setting": "[6]; [7]", "result": "7.9 ± 0.1"}, {"measurement": "pH Reading", "setting": "[6]; [8]", "result": "8.9 ± 0.1"}, {"measurement": "pH Reading", "setting": "[6]; [9]", "result": "7.7 ± 0.0"}, {"measurement": "pH Reading", "setting": "[6]; [10]", "result": "8.5 ± 0.1"}, {"measurement": "pH Reading", "setting": "[6]; 2.25% (w/v) in 2 mL water, With Epi (20 mg)", "result": "7.9 ± 0.1"}, {"measurement": "pH Reading", "setting": "[6]; 2.25% (w/v) in 2 mL water, Without Epi", "result": "8.6 ± 0.1"}]}
{"molecule": "Na Citrate", "values": [{"measurement": "pH Reading", "setting": "[6]; [7]", "result": "5.0 ± 0.1"}, {"measurement": "pH Reading", "setting": "[6]; [8]", "result": "9.4 ± 0.1"}, {"measurement": "pH Reading", "setting": "[6]; [9]", "result": "7.1 ± 0.1"}, {"measurement": "pH Reading", "setting": "[6]; [10]", "result": "9.8 ± 0.1"}]}
